Series [1] relates to MCF-7. Nature of the series: In vitro cytotoxic activity, SRB assay. Format: cell-based. Conditions: Homo sapiens, MCF7; MCF-7, 48h. The protocol: (§1) In addition, compounds (12a, 12b, 12c, 16b, 16c and 17b) were evaluated against a third cell line (HepG-2) These first two cell lines were selected based on the sensitivity of the previously NCI-tested derivatives towards them amongst the 60 NCI panel. The growth inhibition is expressed as the median growth inhibitory concentration (IC50) which corresponds to the concentration required for 50% inhibition of cell viability and are provided in (Table S6 in supplementary material).
(§2) 5,000 cells in fresh medium were seeded in 96-well microlitre plates and left to attach for 24h. Cells were incubated with the tested compounds at concentration range from 0,1,2.5,5,10 µg/ml and incubation was continued for48h. After 48h treatment,the cells were fixed with 50µl cold 50% trichloroacetic acid (TCA )for 1h at 4 °C. Wells were then washed 5 times with water and stained for 30 min at room temperature with 50µl of 0.4%SRB dissolved in 1% acetic acid. The wells were then washed 4 times with 1% acetic acid. The plates were air dried and the dye was solubilized with 100µl/well of 10mM tris base (pH 10.5) for 5min on a shaker (Orbital Shaker OS 20,Boeco,Germany) at 1600 rpm. The optical density (O.D.)of each well was measured spectrophotometrically at 564 nm with an enzyme linked immunosorbent assay( ELIZA) micraplate reader (Tecan Sunrise,Austria).The mean back ground absorbance was subtracted automatically and mean values for each drug concentration was calculated.
(§3) The percentage of cell survival was calculated as follows:
(§4) Survival fraction =O.D.(treated cells)/O.D.(control cells)
(§5) The IC50 value (the concentration required to produce 50% inhibition of cell growth) was calculated using sigmodial dose response curve-fitting models (GraphPad,Prizm software incorporated). Each concentration was repeated 3 times.
Background: Sulforhodamine B stains cellular protein and so reports cell mass.

Series [2] relates to HCT-116. Nature of the series: In vitro cytotoxic activity, SRB assay. It counts as cell-based. As to conditions: Homo sapiens; HCT-116, 48h. How it is done: as §1, §2, §3, §4, §5
For series [3], the target named is T1, VEGFR-2 tyrosine kinase (Homo sapiens, UniProt P35968).
T1 construct: purchased BPS Bioscience 40301
Description: In vitro VEGFR-2 tyrosine kinase assay (BPS Bioscience). It counts as biochemical. Conditions: for inhibition at 10 µM: read-out: VEGFR-2 % inhibition, 10 μM concentration. How it is done: The VEGFR tyrosine kinase assays were performed at BPS Bioscience (www.bpsbioscience.com). All the synthesised compounds representing the six series were evaluated for their ability to inhibit VEGFR-2 tyrosine kinase at single dose of 10 µM.
The VEGFR tyrosine kinase activity at single dose concentration of 10 μM was carried out by BPS Bioscience (www.bpsbioscience.com). VEGFR (BPS#40301) served as the enzyme source and Poly (Glu, Tyr) sodium salt, (4:1, Glu:Tyr) (Sigma#P7244) served as the standardized substrate & Kinase-Glo Plus Luminescence kinase assay kit (Promega#V3772). The IC50 determination was carried out where quality control testing is routinely performed on each of the targets to insure compliance to acceptable standards. ^33P-ATP was purchased from Perkin Elmer and ADP-Glo^TM was purchased from Promega. All other materials were of standard laboratory grade.
The VEGFR tyrosine kinase activity was performed using Kinase-Glo Plus luminescence kinase assay kit (Promega). It measures kinase activity by quantitating the amount of ATP remaining in solution following a kinase reaction. The luminescent signal from the assay is correlated with the amount of ATP present and is inversely correlated with the amount of kinase activity. The compounds were diluted to 100 μM in 10% DMSO and […] of the dilution was added to a […] reaction so that the final concentration of DMSO is 1% in all of reactions. All of the enzymatic reactions were conducted at 30 °C for 40 min. The 50 μl reaction mixture contains […], pH 7.4, […], 0.1 mg/ml BSA, 0.2 mg/ml Poly (Glu, Tyr) substrate, 10 μM ATP and VEGFR. After the enzymatic reaction, […] of Kinase-GloPlus Luminescence kinase assay solution (Promega) was added to each reaction and incubate the plate for 5 min at room temperature. Luminescence signal was measured using a BioTek Synergy 2 microplate reader. The protein kinase assays used to determine IC50 value were performed using ADP-GloTM assay kit from Promega which measures the generation of ADP by the protein kinase. Generation of ADP by the protein kinase reaction leads to an increase in luminescence signal in the presence of ADP-GloTM assay kit. The assay was started by incubating the reaction mixture in a 96-well plate at 30 °C for 30 min. After the 30 min incubation period, the assay was terminated by the addition of […] of ADP-GloTM Reagent (Promega). The 96 well plate was shaken and then incubated for 40 min at ambient temperature. […] of Kinase detection reagent was added, the 96-well reaction plate was then read using the ADP-Glo Luminescences Protocol on a GloMax plate reader (Promega: Catalog #E7031). Blank control was set up that included all the assay components except the addition of appropriate substrate (replace with equal volume of kinase assay buffer). The corrected activity for each protein kinase target was determined by removing the blank control value.
VEGFR activity assays were performed in duplicate at each concentration. The luminescence data were analyzed using the computer software, Graphpad Prism. The difference between luminescence intensities in the absence of VEGFR (Lut) and in the presence of VEGFR (Luc) was defined as 100% activity (Lut - Luc). […] IC50 determination for inhibitor against VEGFR was estimated by generating a graph of log inhibitor vs normalized response with variable using the Prism software.

The test system of series [4] is HepG-2. Description: In vitro cytotoxic activity, SRB assay. Conditions: Homo sapiens, HepG2; HepG-2, 48h. It counts as cell-based. The protocol: as §1, §2, §3, §4, §5

pIC50: −log10 of the molar value.

T1 sequence (P35968 20-1356): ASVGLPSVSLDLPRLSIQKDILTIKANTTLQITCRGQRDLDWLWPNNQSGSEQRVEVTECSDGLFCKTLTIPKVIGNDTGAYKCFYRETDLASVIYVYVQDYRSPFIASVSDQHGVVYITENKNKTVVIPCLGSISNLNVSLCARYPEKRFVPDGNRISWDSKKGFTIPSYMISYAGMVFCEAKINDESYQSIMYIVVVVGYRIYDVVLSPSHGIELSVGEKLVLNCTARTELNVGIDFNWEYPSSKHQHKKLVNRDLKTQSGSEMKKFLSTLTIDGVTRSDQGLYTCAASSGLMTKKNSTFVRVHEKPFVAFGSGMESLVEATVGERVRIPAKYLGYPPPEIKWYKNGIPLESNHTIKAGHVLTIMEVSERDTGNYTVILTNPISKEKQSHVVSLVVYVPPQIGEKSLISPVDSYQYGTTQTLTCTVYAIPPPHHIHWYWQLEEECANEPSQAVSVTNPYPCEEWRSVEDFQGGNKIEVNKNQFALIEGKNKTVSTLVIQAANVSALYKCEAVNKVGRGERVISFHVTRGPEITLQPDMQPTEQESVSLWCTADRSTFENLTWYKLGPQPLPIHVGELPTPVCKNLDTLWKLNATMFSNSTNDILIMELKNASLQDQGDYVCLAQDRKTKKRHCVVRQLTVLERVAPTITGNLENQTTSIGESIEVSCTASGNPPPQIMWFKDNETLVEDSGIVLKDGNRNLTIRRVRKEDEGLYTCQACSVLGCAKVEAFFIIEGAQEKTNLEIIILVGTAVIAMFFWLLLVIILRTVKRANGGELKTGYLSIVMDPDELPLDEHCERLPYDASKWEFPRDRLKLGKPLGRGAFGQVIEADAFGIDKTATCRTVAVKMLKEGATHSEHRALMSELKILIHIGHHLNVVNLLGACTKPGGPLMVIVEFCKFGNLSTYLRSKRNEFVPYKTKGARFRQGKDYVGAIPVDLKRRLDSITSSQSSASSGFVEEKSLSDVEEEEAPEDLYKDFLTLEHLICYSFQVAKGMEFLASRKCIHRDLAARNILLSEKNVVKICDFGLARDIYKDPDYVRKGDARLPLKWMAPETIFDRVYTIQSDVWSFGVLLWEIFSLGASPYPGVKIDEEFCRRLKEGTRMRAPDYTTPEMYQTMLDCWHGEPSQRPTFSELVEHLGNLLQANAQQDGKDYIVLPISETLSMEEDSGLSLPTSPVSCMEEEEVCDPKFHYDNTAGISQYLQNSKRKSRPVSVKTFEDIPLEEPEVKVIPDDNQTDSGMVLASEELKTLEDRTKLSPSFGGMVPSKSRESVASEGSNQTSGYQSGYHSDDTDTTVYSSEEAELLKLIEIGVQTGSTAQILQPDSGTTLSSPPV

For orientation: pIC50 means −log10 of the IC50, conventionally taken in molar units. Broadly, the melting point is the temperature of the solid-liquid transition. For orientation: inhibition means the percentage by which the read-out fell short of the control. `O=C(Nc1ccc(Nc2nncc3ccccc23)cc1)c1ccccc1` [Compound 5a, N-(4-(Phthalazin-1-ylamino)phenyl)benzamide] returned a melting point of 142 to 144 °C. In addition, the pIC50 in series [1] is less than 3.00. The molecule also gave a pIC50 in series [2] of 3.01. The inhibition at 10 µM in series [3] came to 4%.

Take `Cc1nnc(Nc2ccc(NC(=O)c3ccccc3)cc2)c2ccccc12` [Compound 5c, N-(4–(4-Methylphthalazin-1-ylamino)phenyl)benzamide]: the melting point was in the range of 283 to 285 °C. For the same molecule, in series [1], the negative logarithm of the IC50 (pIC50) is 4.64. Besides, the pIC50 in series [2] was 4.82. The inhibition at 10 µM in series [3] was 12%.

`O=C(Nc1ccccc1)Nc1ccc(Nc2nncc3ccccc23)cc1` [Compound 6a, 1-Phenyl-3–(4-(phthalazin-1-ylamino)phenyl)urea] yielded a melting point of 145 to 147 °C. This molecule also showed a pIC50 in series [1] of 4.17. Besides, in series [2], the pIC50 was 4.04. Further, the inhibition at 10 µM in series [3] worked out at 13%.

`O=C(Nc1ccc(Nc2nncc3ccccc23)cc1)Nc1ccc(Cl)c(C(F)(F)F)c1` [Compound 6c, 1–(4-Chloro-3-(trifluoromethyl)phenyl)-3–(4-(phthalazin-1-ylamino)phenyl)urea]: the melting point was in the range of 288 to 291 °C. In series [1], this molecule had a pIC50 of 5.21. In series [2], this molecule had a pIC50 of 5.22. Moreover, the pIC50 in series [3] (10 μM ATP/0.2 mg/ml poly-Glu-Tyr) is 4.87. Besides, the inhibition at 10 µM in series [3] was 70%.

With `Cc1nnc(Nc2ccc(NC(=O)Nc3ccccc3)cc2)c2ccccc12` [Compound 6d, 1–(4-(4-Metyhlphthalazin-1-ylamino)phenyl)3-phenylurea], the melting point is 284 to 286 °C. The pIC50 in series [1] is 4.17. Besides, the pIC50 in series [2] is 4.24. For the same molecule, the inhibition at 10 µM in series [3] was found to be 15%.

`Cc1nnc(Nc2ccc(NC(=O)Nc3ccc(Cl)c(C(F)(F)F)c3)cc2)c2ccccc12` [Compound 6f, 1–(4-Chloro-3-(trifluoromethyl)phenyl)-3–(4-(4-methylphthalazin-1-ylamino)phenyl)-urea] yielded a melting point of 258 to 260 °C. Also, in series [1], the pIC50 is 5.49. The pIC50 in series [2] is 5.51. Besides, the inhibition at 10 µM in series [3] is 32%.

Consider `O=C(Nc1ccccc1)Nc1ccc(Oc2nncc3ccccc23)cc1` [Compound 7a, 1-Phenyl-3–(4-(phthalazin-1-yloxy)phenyl)urea], for which the melting point was 180 to 182 °C. Besides, in series [3], the inhibition at 10 µM is 5%.

In turn, `O=C(Nc1ccc(Oc2nncc3ccccc23)cc1)Nc1ccc(Cl)c(C(F)(F)F)c1` [Compound 7c, 1–(4-Chloro-3-(trifluoromethyl)phenyl)-3–(4-(phthalazin-1-yloxy)phenyl)urea] registered a melting point of 158 to 160 °C. Besides, in series [1], the pIC50 is 5.60. For the same molecule, the pIC50 in series [2] was 5.59. Further, in series [3], the inhibition at 10 µM worked out at 47%.

Turning to `Cc1nnc(Oc2ccc(NC(=O)Nc3ccccc3)cc2)c2ccccc12` [Compound 7d], the melting point was in the range of 174 to 176 °C. Further, the negative logarithm of the IC50 (pIC50) in series [1] is 5.11. This molecule also showed a pIC50 in series [2] of 5.14. Besides, the inhibition at 10 µM in series [3] was found to be 10%.

Regarding `Cc1nnc(Oc2ccc(NC(=O)Nc3ccc(Cl)c(C(F)(F)F)c3)cc2)c2ccccc12` [Compound 7f, 1–(4-Chloro-3-(trifluoromethyl)phenyl)-3–(4-(4-metyhlphthalazin-1-yloxy)phenyl)urea], the melting point lay within 150 to 152 °C. Also, the pIC50 in series [1] is 4.51. The pIC50 in series [2] was 4.31. In addition, in series [3], the inhibition at 10 µM was determined as 21%.

`c1ccc(N2CCN(c3nncc4ccccc34)CC2)cc1` [Compound 8b, 1–(4-Phenylpiperazin-1-yl)phthalazine] displayed a melting point of 242 to 244 °C. Besides, the pIC50 in series [1] is 3.44. In series [2], the pIC50 was 3.26. In addition, the inhibition at 10 µM in series [3] was 8%.

Consider `Fc1ccccc1N1CCN(c2nncc3ccccc23)CC1` [Compound 8c, 1–(4-(2-Fluorophenyl)piperazin-1-yl)phthalazine], for which the melting point lay within 88 to 90 °C. Besides, in series [1], the pIC50 is 4.49. Besides, the pIC50 in series [2] is 4.37. For the same molecule, in series [3], the inhibition at 10 µM worked out at 9%.

Turning to `O=C(c1ccco1)N1CCN(c2nncc3ccccc23)CC1` [Compound 8e, Furan-2-yl-(4-(phthalazin-1-yl)piperazin-1-yl)methanone], the melting point fell in the range of 90 to 92 °C. Besides, the pIC50 in series [1] is 3.72. The pIC50 in series [2] was 3.29. Moreover, in series [3], the inhibition at 10 µM was 9%.

The molecule `Cc1nnc(N2CCN(C(=O)c3ccco3)CC2)c2ccccc12` [Compound 8j, Furan-2-yl-(4–(4-methylphthalazin-1-yl)piperazin-1-yl)methanone] displayed a melting point of 90 to 92 °C. In series [1], the pIC50 is 3.32. The same molecule had a pIC50 in series [2] of 3.32. The inhibition at 10 µM in series [3] worked out at 10%.

The molecule `O=C(Nc1ccccc1)Nc1ccc(Nc2nnc(Cl)c3ccccc23)cc1` [Compound 12a, 1–(4-(4Chlorophthalazin-1-ylamino)phenyl)-3-phenylurea] showed a melting point of 225 to 227 °C. In series [4], this molecule showed a pIC50 of less than 3.00. The pIC50 in series [1] is 4.09. Besides, the pIC50 in series [2] is 3.32. Further, in series [3], the inhibition at 10 µM is 26%.

For `Clc1ccc(Nc2nnc(CNc3cccc(Cl)c3)c3ccccc23)cc1` [Compound 16b, N-(4-Chlorophenyl)-4-((3-chlorophenylamino)methyl)phthalazin-1-amine], the melting point lay in the range of 164 to 166 °C. For the same molecule, the pIC50 in series [4] is 4.11. The molecule also had a pIC50 in series [1] of 4.04. The molecule further had a pIC50 in series [2] of 4.54. In series [3], the inhibition at 10 µM came to 21%.

For the molecule `Cc1cccc(NCc2nnc(Nc3ccc(Cl)cc3)c3ccccc23)c1` [Compound 16c, N-(4-Chlorophenyl)-4-((m-tolylamino)methyl)phthalazin-1-amine], the melting point was in the range of 130 to 132 °C. Also, in series [4], the pIC50 was less than 3.00. The molecule also gave a pIC50 in series [1] of less than 3.00. In series [2], this molecule had a pIC50 of 3.59. Besides, the inhibition at 10 µM in series [3] is 19%.

Consider `COc1cccc2c1C(=O)c1c(O)c3c(c(O)c1C2=O)C[C@@](O)(C(=O)CO)C[C@@H]3O[C@H]1C[C@H](N)[C@H](O)[C@H](C)O1` [Dox, doxorubicin, reference compound], for which the pIC50 in series [4] is 6.30; in series [1], 6.05; in series [2], 6.21.

Values taken from article PMC6691788, “Design and synthesis of phthalazine-based compounds as potent anticancer agents with potential antiangiogenic activity via VEGFR-2 inhibition” (Journal of Enzyme Inhibition and Medicinal Chemistry, 2019).
